Measurements: patent publication US20040156869A1, “2-substituted quinazolin-4-ylamine analogues” (Neurogen Corporation, priority 2002, published 2004)
Read-outs that look alike come from different tables or passages of the source.

Molecular target: human capsaicin receptor (VR1) (Homo sapiens, UniProt Q8NER1)
Assay: Capsaicin receptor binding assay ([3H]RTX competition, VR1-transfected HEK293 membranes)

human capsaicin receptor (VR1), sequence (Q8NER1 whole entry): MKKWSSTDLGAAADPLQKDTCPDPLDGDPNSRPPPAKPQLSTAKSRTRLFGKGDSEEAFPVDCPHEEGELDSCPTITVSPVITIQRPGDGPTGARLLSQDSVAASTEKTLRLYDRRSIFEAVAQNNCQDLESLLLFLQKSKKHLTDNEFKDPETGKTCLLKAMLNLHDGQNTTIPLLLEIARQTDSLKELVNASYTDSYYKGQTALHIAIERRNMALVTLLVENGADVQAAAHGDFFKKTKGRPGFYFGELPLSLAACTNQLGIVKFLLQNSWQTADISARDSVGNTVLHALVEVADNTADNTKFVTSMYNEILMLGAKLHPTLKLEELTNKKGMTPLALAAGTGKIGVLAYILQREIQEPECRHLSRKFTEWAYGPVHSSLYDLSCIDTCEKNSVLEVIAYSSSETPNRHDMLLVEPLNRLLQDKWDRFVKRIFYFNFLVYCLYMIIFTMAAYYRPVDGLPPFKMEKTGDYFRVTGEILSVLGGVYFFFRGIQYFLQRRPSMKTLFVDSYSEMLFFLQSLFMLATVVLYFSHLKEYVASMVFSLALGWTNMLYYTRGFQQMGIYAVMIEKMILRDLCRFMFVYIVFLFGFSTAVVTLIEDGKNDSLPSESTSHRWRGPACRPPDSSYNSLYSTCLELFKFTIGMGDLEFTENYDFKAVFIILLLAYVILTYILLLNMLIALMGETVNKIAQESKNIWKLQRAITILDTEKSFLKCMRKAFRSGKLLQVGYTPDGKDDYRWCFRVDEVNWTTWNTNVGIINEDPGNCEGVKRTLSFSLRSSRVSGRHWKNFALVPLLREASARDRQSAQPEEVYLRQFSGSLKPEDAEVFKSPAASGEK

| Ki [nM] | Ki (Table III, capsaicin receptor binding) [nM] | Structure (SMILES) |
| --- | --- | --- |
| < 1000 |  | FC(F)(F)c1ccc(Nc2nc(-c3cccnc3)nc3cc(-c4ncccc4C(F)(F)F)ccc23)cc1 [Compound 508, [2-Pyridin-3-yl-7-(3-trifluoromethyl-pyridin-2-yl)-quinazolin-4-yl]-(4-trifluoromethyl-phenyl)-amine] |
| < 1000 |  | CO[C@H](C)c1nc(Nc2ccc(C(F)(F)F)cc2)c2ccc(-c3ncccc3Cl)nc2n1 [Compound 245, (R)-[7-(3-Chloro-pyridin-2-yl)-2-(1-methoxy-ethyl)-pyrido[2,3-d]pyrimidin-4-yl]-(4-trifluoromethyl-phenyl)-amine] |
| < 1000 |  | CC(C)c1ccc(Nc2nc(CN3C[C@H](C)O[C@@H](C)C3)nc3cc(-c4ncccc4Cl)ccc23)cc1 [Compound 650, (S,S)-[7-(3-Chloro-pyridin-2-yl)-2-(2,6-dimethyl-morpholin-4-ylmethyl)-quinazolin-4-yl]-(4-isopropyl-phenyl)-amine] |
| < 1000 |  | CC(C)(C)c1ccc(Nc2nc(CN3C[C@@H](O)C[C@@H]3C(=O)O)nc3cc(-c4ncccc4C(F)(F)F)ccc23)cc1 (stereo in doubt) [Compound 753, (R,S)-1-[4-(4-tert-Butyl-phenylamino)-7-(3-trifluoromethyl-pyridin-2-yl)-quinazolin-2-ylmethyl]-4-hydroxy-pyrrolidine-2-carboxylic acid] |
| < 1000 |  | CCN(CC)CCOCc1nc(Nc2ccc(C(F)(F)F)nc2)c2ccc(-c3ncccc3C(F)(F)F)cc2n1 [Compound 29, [2-(2-Diethylamino-ethoxymethyl)-7-(3-trifluoromethyl-pyridin-2-yl)-quinazolin-4-yl]-(6-trifluoromethyl-pyridin-3-yl)-amine] |
| < 1000 |  | Cc1cccnc1-c1ccc2c(Nc3ccc(C(F)(F)F)cc3)nc(CN3CCC[C@H]3C(=O)O)nc2n1 [Compound 747, (S)-1-[7-(3-Methyl-pyridin-2-yl)-4-(4-trifluoromethyl-phenylamino)-pyrido[2,3-d]pyrimidin-2-ylmethyl]-pyrrolidine-2-carboxylic acid] |
| < 1000 |  | CC(C)CCNC(=O)c1nc(Nc2ccc(C(F)(F)F)cc2)c2ccc(-c3ncccc3C(F)(F)F)cc2n1 [Compound 761, 4-(4-Trifluoromethyl-phenylamino)-7-(3-trifluoromethyl-pyridin-2-yl)-quinazoline-2-carboxylic acid (3-methyl-butyl)-amide] |
| < 1000 |  | CN1CCC(NC(=O)c2nc(Nc3ccc(C(F)(F)F)cc3)c3ccc(-c4ncccc4C(F)(F)F)nc3n2)CC1 [Compound 448, 4-(4-Trifluoromethyl-phenylamino)-7-(3-trifluoromethyl-pyridin-2-yl)-pyrido[2,3-d]pyrimidine-2-carboxylic acid (1-methyl-piperidin-4-yl)-amide] |
|  | < 1000 | CC1CN(Cc2nc(Nc3ccc(C(C)(C)C)cc3)c3ncc(-c4ncccc4C(F)(F)F)cc3n2)CC(C)O1 (stereo not drawn) [Compound 583, (4-tert-Butyl-phenyl)-[2-(2,6-dimethyl-morpholin-4-ylmethyl)-7-(3-trifluoromethyl-pyridin-2-yl)-pyrido[3,2-d]pyrimidin-4-yl]-amine (cis)] |
| < 1000 |  | C[C@@H]1CN(Cc2nc(Nc3ccc(C(C)(C)C)nc3)c3ccc(-c4ncccc4C(F)(F)F)cc3n2)C[C@@H](C)O1 [Compound 611, (R,R)-(6-tert-Butyl-pyridin-3-yl)-[2-(2,6-dimethyl-morpholin-4-ylmethyl)-7-(3-trifluoromethyl-pyridin-2-yl)-quinazolin-4-yl]-amine] |
| < 1000 |  | C[C@@H]1CN(Cc2nc(Nc3ccc(C(F)(F)F)cc3)c3ncc(-c4ncccc4C(F)(F)F)cc3n2)C[C@H](C)O1 [Compound 546, [2-(2,6-Dimethyl-morpholin-4-ylmethyl)-7-(3-trifluoromethyl-pyridin-2-yl)-pyrido[3,2-d]pyrimidin-4-yl]-(4-trifluoromethyl-phenyl)-amine (cis)] |
| < 1000 |  | CCN(Cc1nc(Nc2ccc(C(F)(F)F)cc2)c2ccc(-c3ncccc3C(F)(F)F)cc2n1)C(C)C [Compound 332] |
| < 1000 |  | CC(=O)N1CCN(Cc2nc(Nc3ccc(C(F)(F)F)nc3)c3ccc(-c4ncccc4C(F)(F)F)cc3n2)CC1 [Compound 489, 1 -{4-[7-(3-Trifluoromethyl-pyridin-2-yl)-4-(6-trifluoromethyl-pyridin-3-ylamino)-quinazolin-2-ylmethyl]-piperazin-1-yl}-ethanone] |
| < 1000 |  | CS(=O)(=O)N1CCC(c2nc(Nc3ccc(C(F)(F)F)cc3)c3ccc(-c4ncccc4C(F)(F)F)cc3n2)CC1 [Compound 703, [2-(1-Methanesulfonyl-piperidin-4-yl)-7-(3-trifluoromethyl-pyridin-2-yl)-quinazolin-4-yl]-(4-trifluoromethyl-phenyl)-amine] |
| < 1000 |  | CCCCCCN(C)Cc1nc(Nc2ccc(C(F)(F)F)nc2)c2ccc(-c3ncccc3C(F)(F)F)cc2n1 [Compound 376, [2-[(Hexyl-methyl-ainino)-methyl]-7-(3-trifluoromethyl-pyridin-2-yl)-quinazolin-4-yl]-(6-trifluoromethyl-pyridin-3-yl)-amine] |
| < 1000 |  | CCOC(=O)c1nc(Nc2ccc(C(C)(C)C)cc2)c2ccc(-c3ncccc3C(F)(F)F)nc2n1 [Compound 219, 4-(4-tert-Butyl-phenylamino)-7-(3-trifluoromethyl-pyridin-2-yl)-pyrido[2,3-d]pyrimidine-2-carboxylic acid ethyl ester] |
| < 1000 |  | CN1CCC(c2nc(Nc3ccc(C(F)(F)F)cc3)c3ccc(-c4ncccc4Cl)nc3n2)CC1 [Compound 771, [7-(3-Chloro-pyridin-2-yl)-2-(1-methyl-piperidin-4-yl)-pyrido[2,3-d]pyrimidin-4-yl]-(4-trifluoromethyl-phenyl)-amine] |
| < 1000 |  | CCOC(=O)C1CCCN(Cc2nc(Nc3ccc(C(F)(F)F)nc3)c3ccc(-c4ncccc4C(F)(F)F)cc3n2)C1 (stereo not shown) [Compound 488, 1-[7-(3-Trifluoromethyl-pyridin-2-yl)-4-(6-trifluoromethyl-pyridin-3-ylamino)-quinazolin-2-ylmethyl]-piperidine-3-carboxylic acid ethyl ester] |
| < 1000 |  | CCCN(CCc1nc(Nc2ccc(C(F)(F)F)cc2)c2ccc(-c3ncccc3C(F)(F)F)cc2n1)CC1CC1 [Compound 418, [2-[(Cyclopropylmethyl-propyl-amino)-ethyl]-7-(3-trifluoromethyl-pyridin-2-yl)-quinazolin-4-yl]-(4-trifluoromethyl-phenyl)-amine] |
| < 1000 |  | CC1c2ccccc2CCN1CCc1nc(Nc2ccc(C(F)(F)F)cc2)c2ccc(-c3ncccc3C(F)(F)F)cc2n1 (stereo not shown) [Compound 391, [2-[2-(1-Methyl-3,4-dihydro-1H-isoquinolin-2-yl)-ethyl]-7-(3-trifluoromethyl-pyridin-2-yl)-quinazolin-4-yl]-(4-trifluoromethyl-phenyl)-amine] |
| < 1000 |  | CCCN(Cc1nc(Nc2ccc(C(F)(F)F)cc2)c2ccc(-c3ncccc3C(F)(F)F)cc2n1)CC1CC1 [Compound 551, [2-[(Cyclopropylmethyl-propyl-amino)-methyl]-7-(3-trifluoromethyl-pyridin-2-yl)-quinazolin-4-yl]-(4-trifluoromethyl-phenyl)-amine] |
| < 1000 |  | CC(C)(C)c1ccc(Nc2nc(COCc3ccccc3)nc3cc(-c4ncccc4C(F)(F)F)ccc23)cc1 [Compound 43, [2-Benzyloxymethyl-7-(3-trifluoromethyl-pyridin-2-yl)-quinazolin-4-yl]-(4-tert-butyl-phenyl)-amine] |
| < 1000 |  | CC1CN(Cc2nc(Nc3ccc(C(C)C(F)(F)F)cc3)c3ccc(-c4ncccc4C(F)(F)F)cc3n2)CC(C)O1 (stereo not shown) [Compound 525, [2-(2,6-Dimethyl-morpholin-4-ylmethyl)-7-(3-trifluoromethyl-pyridin-2-yl)-quinazolin-4-yl]-[4-(2,2,2-trifluoro-1-methyl-ethyl)-phenyl]-amine] |
| < 1000 |  | C[C@@H](OCc1nc(Nc2ccc(C(C)(C)C)cc2)c2ccc(-c3ncccc3C(F)(F)F)cc2n1)C(=O)O [Compound 229, (R)-2-[4-(4-tert-Butyl-phenylamino)-7-(3-trifluoromethyl-pyridin-2-yl)-quinazolin-2-ylmethoxy]-propionic acid (chiral)] |
| < 1000 |  | CC(C)(CO)c1nc(Nc2ccc(C(F)(F)F)cc2)c2ccc(-c3ncccc3C(F)(F)F)cc2n1 [Compound 218, 2-Methyl-2-[4-(4-trifluoromethyl-phenylamino)-7-(3-trifluoromethyl-pyridin-2-yl)-quinazolin-2-yl]-propan-1-ol] |
| < 1000 |  | CC(C)N1CCN(Cc2nc(Nc3ccc(C(F)(F)F)cc3)c3ccc(-c4ncccc4C(F)(F)F)cc3n2)CC1 [Compound 512, [2-(4-Isopropyl-piperazin-1-ylmethyl)-7-(3-trifluoromethyl-pyridin-2-yl)-quinazolin-4-yl]-(4-trifluoromethyl-phenyl)-amine] |
| < 1000 |  | COCc1cc(Nc2ccc(C#N)cc2)c2ccc(-c3ncccc3C(F)(F)F)nc2n1 [Compound 305, 4-[2-Methoxymethyl-7-(3-trifluoromethyl-pyridin-2-yl)-[1,8]naphthyridin-4-ylamino]-benzonitrile] |
| < 1000 |  | COCc1nc(Nc2ccc(C#N)cc2)c2ccc(-c3ncccc3C(F)(F)F)nc2n1 [Compound 288, 4-[2-Methoxymethyl-7-(3-trifluoromethyl-pyridin-2-yl)-pyrido[2,3-d]pyrimidin-4-ylamino]-benzonitrile] |

| Structure (SMILES) | Ki [nM] | Ki (Table III, capsaicin receptor binding) [nM] |
| --- | --- | --- |
| Cc1ccc(Nc2nc(COCC(C)C)nc3nc(-c4ncccc4C(F)(F)F)ccc23)cc1C [Compound 257, (3,4-Dimethyl-phenyl)-[2-isobutoxymethyl-7-(3-trifluoromethyl-pyridin-2-yl)-pyrido[2,3-d]pyrimidin-4-yl]-amine] | < 1000 |  |
| CC(C)COCc1nc(Nc2ccc(F)c(C(F)(F)F)c2)c2ccc(-c3ncccc3C(F)(F)F)nc2n1 [Compound 254, (4-Fluoro-3-trifluoromethyl-phenyl)-[2-isobutoxymethyl-7-(3-trifluoromethyl-pyridin-2-yl)-pyrido[2,3-d]pyrimidin-4-yl]-amine] | < 1000 |  |
| CC(C)COCc1nc(Nc2ccc(C(C)(C)C#N)cc2)c2ccc(-c3ncccc3Cl)nc2n1 [Compound 179, 2-{4-[7-(3-Chloro-pyridin-2-yl)-2-isobutoxymethyl-pyrido[2,3-d]pyrimidin-4-ylamino]-phenyl}-2-methyl-propionitrile] | < 1000 |  |
